Data taken from patent US5037957A, “Cysteine proteinase inhibitor” (priority 1987, dated 1991).

How the values were obtained:
[1] = tested on: group-A streptococci
Method: Group-A streptococci were cultured on blood agar discs as in routine diagnosis for determining sensitivity to antibiotics. The discs applied on the culture gel and used for supplying different types of known antibiotics were this time soaked instead with 20 μl of a solution having an LVG concentration of 1 mM. […] (MIC=minimal inhibiting concentration).

[2] = target: trypsin (Bos taurus, UniProt P00760); conditions: 250-fold molar excess, even after incubation for one hour
Method: Trypsin activity at pH 7.5 was measured at room temperature (22° C.) on samples in buffer with a final concentration of 25 mN Tris/25 mM CaCl2 The reaction was started by the addition of Bz-DL-Arg-pNA to 2.5 mN final concentration and stopped after 10 minutes by the addition of an equal volume of 50% (v/v) HAc. Released paranitroaniline was meausred spectrophotometrically (Perkin-Elmer 550S) at 405 nm. Absorbancy values for blank (HAc addition before enzyme/substrate addition) were subtracted before evaluation.

[3] = target: T1, papain (Carica papaya, UniProt P00784); type: biochemical; conditions: for apparent rate constant (k'+2, second order) for inactivation of papain: 12-fold molar excess of inhibitor, papain 2×10^-8 M, pH 6.5, 22° C
T1 construct: purchased Sigma type III
T1 sequence (P00784 134-345): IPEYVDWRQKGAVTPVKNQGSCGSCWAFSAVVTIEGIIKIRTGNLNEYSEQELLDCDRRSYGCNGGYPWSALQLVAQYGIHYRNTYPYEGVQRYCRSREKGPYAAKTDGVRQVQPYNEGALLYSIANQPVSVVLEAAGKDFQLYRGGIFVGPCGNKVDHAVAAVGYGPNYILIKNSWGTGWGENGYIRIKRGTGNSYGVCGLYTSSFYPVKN
Method: Activity determination of papain was performed according to Barrett et al (ibid.), using Z-Phe-Arg-NHMec as substrate in 0.1M phosphate buffer, pH 6.5/1 mM DTT/1 mM EDTA at room temperature (22° C). All test dilutions were performed in 0.01% Brij 35. The reaction was started by substrate addition (20 μM final concentration) and stopped 10 minutes later by the addition of an equal volume of 0.1M NaCH2 Cl/NaAc, pH 4.3. Released fluorogen product was measured in a Perkin-Elmer MPF-43A spectrofluorimeter (excitation 360 nm, emission 460 nm) against a blank with the same contents as the test solution where chloroacetate had been added before the addition of enzyme/substrate.
The molar active concentration of the papain solution used was determined by titration with E-64 (Barrett et al., ibid.). Stock solutions (1 mM) of LVG and VG were prepared by weighing 10 μmol of the respective peptidyl diazomethyl ketone which was thereafter dissolved in 500 μl acetonitrile (LVG) or 100 μl DMSO (VG), whereupon the volumes were adjusted to 10 ml with water. The exact concentration of peptidyl diazomethyl ketone was experimentally established, such that the reaction proceeded within a reasonable time with regard to the measuring technique used. Enzyme (2×10^-8 M final concentration) and peptidyl diazomethyl ketone were mixed at zero time. 25 μl samples were withdrawn at suitable times (15 s-10 min.) and therafter immediately added to mixtures for enzyme activity determination (see above). The dilution then obtained efficiently stopped continued reaction between enzyme and peptidyl diazomethyl ketone.
Evaluation of experimental data was made in the manner described by Barret et al. (ibid.), where
When i>>e, the following equation applies to the kinetics of inactivation: [formula] where ao is enzyme activity (here measured as amount of released fluorogen product from the substrate Z-Phe-Arg-NHMec) at zero time, and at is enzyme activity at time t.
The apparent rate constant k'+2 (second order) for the inactivation in the scheme
was caculated as kobs /i.
Papain was incubated with LVG and VG in a 12-fold molar excess, and samples were withdrawn at different times for determining residual enzyme activity.

[4] = tested on: group-A streptococci; conditions: 0.2 mg LVG intraperitoneally 45 min after lethal dose of group-A streptococci; five mice per group; none of the five controls alive
Method: Ten mice were injected intraperitoneally with lethal doses of group-A streptococci. Five of them received after a period of 45 min. 0.2 mg LVG in 0.5 ml 1% dimethyl sulfoxide in physiological sterile saline by a second intraperitoneal injection.

[5] = target: human calpain (Homo sapiens, UniProt P07384); conditions: calpain 2.5 μg/ml, 30 min at 37° C, pH 7.5
Method: Isolated human calpain (0.15 mg/ml) in 20 mM Tris buffer, pH 7.5/5 mM CaCl2 /6 mM dithiothreitol was supplied with a substrate (0.4% casein in 0.1 M imidazole buffer, pH 7.5/5 mM CaCl2 /6 mM dithiothreitol) and different amounts of LVG. After incubation for 30 min. at 37° C., the reaction was stopped by the addition of trichloroacetic acid to a final concentration of 2.5%, and the samples were centrifuged, whereupon the absorption of the supernatant at 280 nm was measured.

[6] = target: streptococcal proteinase (Streptococcus pyogenes serotype M1, UniProt P0C0J1); conditions: proteinase 0.0625 mg/ml, 5 min preincubation at 37° C, azocasein 15 min
Method: The isolated streptococcal proteinase (15 mg/ml) was diluted to 0.0625 mg/ml with 0.4M phosphate buffer, pH 6.5/4 mM EDTA/4 mM DTT and then activated by incubation at 37° C. for two hours. To a constant volume of the active streptococcal proteinase was thereafter added a constant volume of LVG solutions with increasing LVG concentration. After incubation for 5 min. at 37° C., the substrate azocasein was added and after additional incubation for exactly 15 min. at 37° C., the reaction was stopped by the addition of 20% TCA (trichloroacetic acid). The samples were centrifuged and the absorbancy of the supernatant was read at 366 nm.

Row | Substance | effect on bacterial growth when a molar excess of isolated streptococcal proteinase was added to the LVG solution ([1]; LVG solution premixed with molar excess of streptococcal proteinase before application to cultures) | inhibition of growth of group-A streptococci on blood agar ([1]; discs soaked with 20 μl of 1 mM LVG, all tested isolates and reference strains) | MIC (minimal inhibiting concentration) for group-A streptococci ([1]; growth in free solution) | inhibition of trypsin enzyme activity [2] | apparent rate constant (k'+2, second order) for inactivation of papain [3] [M⁻¹ s⁻¹] | effectiveness as papain inhibitor relative to VG ([3]; LVG versus VG) | mice still alive after one day [4] | final concentration of LVG giving complete inhibition of calpain [5] [µM] | LVG concentration sufficient to give total inhibition of streptococcal proteinase activity [6] [µM] | inhibition of papain [3] | behaviour as substrate for papain ([3]; cleaved at the glycine-glycine peptide bond)
1 | N-benzyloxycarbonyl-leucyl-valyl-glycine diazomethyl ketone [LVG] | no effect on the bacterial growth | effectively inhibited in growth | about 1 μg/l | no inhibition | 300000 | about 100 times | five | 1 | 10 |  | 
2 | N-t-butyloxycarbonyl-valyl-glycine diazomethyl ketone [VG] |  |  |  | no inhibition | 5000 |  |  |  |  |  | 
3 | synthetic peptide corresponding to position 4-21 in cystatin C: synthetic peptide corresponding to position 4-21 in cystatin C (synthesized on request by Ferring AB, Malmo, Sweden) (GKPPRLVGGPMDASVEEE; UniProt P01034 30-47, looked up, fragment) [reference compound] |  |  |  |  |  |  |  |  |  | does not at all inhibit | excellent substrate
